From US20080044484A1, “Use of polymeric nanoparticles for vaccine delivery” (THE REGENTS OF THE UNIVERSITY OF CALIFORNIA, priority 2004, published 2008)

Columns and labels:
T2 cells [1] = experiment: IFNγ release by CTL (ELISA) after incubation with peptide-loaded T2 cells; type: cell-based, human; conditions: CTL elicited with the corresponding HER2/neu peptide, 20 h, 10^5 CTL/well
Protocol: In interferon gamma-release assays, 10^5 HER2/neu-specific CTL were co-incubated with 10^5 peptide-loaded T2 cells for 20 hours at 37° C. The concentrations of human interferon gamma in co-cultured supernatants were then determined by ELISA.

T2 cells [2] = experiment: 51Cr-release assay using T2 cells pulsed with HER2/neu-derived peptides as targets for CTL; conditions: T2 pulsed with the peptide; percentage of specific lysis
Protocol: To probe class I presentation of cells loaded with the fusion peptides and their counterpart minimal peptides CTL recognizing the HER2/neu-derived peptides were generated. In vitro peripheral blood mononuclear cells (PBMCs) were immunized from healthy donors with these peptides in the presence of interleukin 2 and interleukin 7 using the following technique:
The next day, 12 units/ml IL-2 (Chiron) and 30 units/ml IL-7 (R & D Systems) were added to the cultures. Lymphocytes were re-stimulated weekly with peptide-pulsed autologous adherent cells as follows: First, autologous PBMC were incubated with HER2/neu peptide (10 μg/ml) for 3 h at 37° C. Nonadherent cells were then removed by a gentle wash and the adherent cells were incubated with fresh medium containing the HER2/neu peptide (10 μg/ml) for an additional 3 h at 37° C.
The induction of CTL in human PBMC was monitored in a conventional ^51Cr-labeling release assay. Briefly, peptide-pulsed TAP^−/HLA-A2.1^+ human T2 cells were incubated with 10 μg of HER2/neu peptides or the MART-1 control peptide for 90 min during labeling with ^51Cr. After washing, the target cells were added to serially diluted effectors in 96-well microplates. After a 6-h incubation at 37° C., supernatants were harvested and counted in a gamma counter. Results are expressed as the percentage of specific lysis and determined as follows: [(experimental cpm−spontaneous cpm)/(maximum cpm−spontaneous cpm)]×100.

LnCap (HLA-A2+) = experiment: LDH-release cytotoxicity assay of STEAP-specific CTL against prostate cancer cell line; type: cell-based, human; conditions: CTL specific for the peptide; 4-hour LDH-release assay
Protocol: (§1) It was tested whether the STEAP-derived peptides can induce potent CTL capable of recognizing and killing prostate cancer cells in vitro. CTL lines selected for their ability to lyse peptide-pulsed target cells were used as effectors in LDH-release cytotoxicity assays against the cancer cell lines. The HLA-A2+ cancer cell line LnCAP was used, with the HLA-A2−negative cancer cell line DU145 as a control (Table 29).

DU145 (HLA-A2−) = experiment: LDH-release cytotoxicity assay of STEAP-specific CTL against HLA-A2-negative control cell line; type: cell-based, human; conditions: CTL specific for the peptide; 4-hour LDH-release assay
Protocol: as §1

[3] = test system: K562-A2 cells pulsed with STEAP peptide; experiment: Blocking of CTL lysis with antibodies BB7.2 / IVA12, LDH-release assay; type: cell-based, human; conditions: for Percent LDH released from K562-A2 pulsed +IVA12: anti-HLA class II antibody IVA12 added to peptide-pulsed targets before 4-hour LDH-release assay; for Percent LDH released from K562-A2 pulsed +BB7.2: anti-HLA-A2 antibody BB7.2 added to peptide-pulsed targets before 4-hour LDH-release assay
Excerpt: As an additional control the anti-HLA class II antibody IVA12 was used. With these experiments, it was confirmed that the STEAP-specific CTL can recognize and kill target cells in a class I-restricted fashion (Table 30).

[4] = test system: K562-A2 cells pulsed with STEAP peptide; experiment: In vitro induction of STEAP peptide-specific CTL, LDH-release cytotoxicity assay; conditions: for Percent LDH released from K562-A2 pulsed with peptide: K562-A2 pulsed with corresponding STEAP peptide 2 hours at 37° C.; for Percent LDH released from K562-A2 pulsed with peptide / Percent LDH released from K562-A2: CTL specific for the peptide, 4-hour LDH-release assay; for Induction of peptide-specific CTL: in vitro immunization of PBMC; for Percent LDH released from K562-A2: non-pulsed K562-A2 targets
[5] = test system: breast cancer cells MDA-MB-231; experiment: IFNγ release by CTL (ELISA) after incubation with peptide-loaded MDA-MB-231 cells; type: cell-based, human; conditions: CTL elicited with the corresponding HER2/neu peptide, 20 h, 10^5 CTL/well
Protocol: In interferon gamma release assays, 10^5 HER2/neu-specific CTL were co-incubated with 10^5 peptide-loaded tumor cells for 20 hours at 37° C. The concentration of human interferon gamma in co-cultured supernatants was then determined by ELISA.

[6] = test system: ICP47-transfected cells MCF7; experiment: Functional blockade of TAP by ICP47, 51Cr-release from peptide-loaded cells; type: cell-based, human; conditions: CTL reactive against the corresponding HER2/neu peptide, 3 days after peptide loading, 6-hour assay
Excerpt: Another aspect in these studies was to determine the mechanisms of enhancement of the antigen presentation by the fusion peptides in human tumor cell lines. Therefore, a new test system was developed utilizing the Herpes Simplex virus (HSV) protein ICP47. ICP47 is a cytoplasmic protein, which interferes with antigen presentation by physically associating with TAP within the cell and inhibiting peptide transport across the ER-membrane. By transfecting the ICP47 gene into several cancer cell lines a novel system for screening different fusion peptides for TAP-independent translocation of peptide antigens through the ER-membrane was generated.
The expression of these antigens was detected by ^51Cr-release assays.

Substance | Release of IFNγ by CTL, T2 cells loaded with the peptide (T2 cells [1]; Day 1 after peptide loading) [pg/mL] | Release of IFNγ by CTL, T2 cells loaded with the peptide (T2 cells [1]; Day 3 after peptide loading) [pg/mL] | Release of IFNγ by CTL, T2 cells loaded with the peptide (T2 cells [1]; Day 5 after peptide loading) [pg/mL] | Release of IFNγ by CTL, T2 cells loaded with the peptide (T2 cells [1]; Day 8 after peptide loading) [pg/mL] | Percent LDH released from LnCap (HLA-A2+) (LnCap (HLA-A2+)) [%] | Percent LDH released from DU145 (HLA-A2−) (DU145 (HLA-A2−)) [%] | Percent LDH released from K562-A2 pulsed +IVA12 [3] [%] | Percent LDH released from K562-A2 pulsed +BB7.2 [3] [%] | Percent LDH released from K562-A2 pulsed with peptide [4] [%] | Induction of peptide-specific CTL [4] | Percent LDH released from K562-A2 [4] [%] | Release of IFNγ by CTL, MDA-MB-231 cells loaded with the peptide ([5]; Day 1 after peptide loading) [pg/mL] | Release of IFNγ by CTL, MDA-MB-231 cells loaded with the peptide ([5]; Day 3 after peptide loading) [pg/mL] | Release of IFNγ by CTL, MDA-MB-231 cells loaded with the peptide ([5]; Day 5 after peptide loading) [pg/mL] | Release of IFNγ by CTL, MDA-MB-231 cells loaded with the peptide ([5]; Day 8 after peptide loading) [pg/mL] | further results
CLTSTVQLV (listed as Homo sapiens) [HER2/neu789-797] | 2924 | 317 | 116 | 91 | – | – | – | – | – | – | – | – | – | – | – | 51Cr-release, E:T ratio 1.5:1 (T2 cells [2]): 9%; 51Cr-release, E:T ratio 3.1 (T2 cells [2]): 22%; 51Cr-release, E:T ratio 6:1 (T2 cells [2]): 31%; 51Cr-release, E:T ratio 12:1 (T2 cells [2]): 52%; 51Cr-release, E:T ratio 25:1 (T2 cells [2]): 62%; 51Cr-release, E:T ratio 50:1 (T2 cells [2]): 83%
FLPGVIAAI [STEAP130-138 - 1F] | – | – | – | – | 73 | −1 | 69 | 2 | 75 | induced potent peptide-specific CTL | 4 | – | – | – | – | –
FLWGVIAAV [STEAP130-138 - 1F/3W/9V] | – | – | – | – | 84 | 1 | 75 | 1 | 74 | induced potent peptide-specific CTL | 1 | – | – | – | – | –
HLYQGCQVV (listed as Homo sapiens) [HER2/neu48-56] | 2280 | 488 | 134 | 177 | – | – | – | – | – | – | – | – | – | – | – | 51Cr-release, E:T ratio 1.5:1 (T2 cells [2]): 8%; 51Cr-release, E:T ratio 3.1 (T2 cells [2]): 19%; 51Cr-release, E:T ratio 6:1 (T2 cells [2]): 33%; 51Cr-release, E:T ratio 12:1 (T2 cells [2]): 41%; 51Cr-release, E:T ratio 25:1 (T2 cells [2]): 53%; 51Cr-release, E:T ratio 50:1 (T2 cells [2]): 88%
IISAVVGIL (listed as Homo sapiens) [HER2/neu654-662, reference compound] | 2827 | 429 | 121 | 167 | – | – | – | – | – | – | – | 2826 | 438 | 131 | 147 | 51Cr-release, E:T ratio 1.5:1 (T2 cells [2]): 13%; 51Cr-release, E:T ratio 3.1 (T2 cells [2]): 26%; 51Cr-release, E:T ratio 6:1 (T2 cells [2]): 38%; 51Cr-release, E:T ratio 12:1 (T2 cells [2]): 59%; 51Cr-release, E:T ratio 25:1 (T2 cells [2]): 71%; 51Cr-release, E:T ratio 50:1 (T2 cells [2]): 91%
IISAVVGIL MRYMILGLLALAAVCSA (IISAVVGILMRYMILGLLALAAVCSA) [HER654-662-ES] | 144 | 124 | 137 | 83 | – | – | – | – | – | – | – | 188 | 138 | 135 | 93 | –
IISAVVGIL MTNKCLLQIALLLCFSTTALS (IISAVVGILMTNKCLLQIALLLCFSTTALS) [HER654-662-IS] | 111 | 99 | 121 | 76 | – | – | – | – | – | – | – | 144 | 102 | 132 | 86 | –
LLNWAYQQV (listed as Homo sapiens) [STEAP192-200] | – | – | – | – | 43 | 18 | 30 | 7 | 56 | induced potent peptide-specific CTL | 8 | – | – | – | – | Induction of peptide-specific CTL in patients with prostate cancer ([4]; number of patients): three out of three
LLSFFFAVL (listed as Homo sapiens) [STEAP166-174] | – | – | – | – | 65 | 4 | 47 | 11 | 43 | induced potent peptide-specific CTL | 3 | – | – | – | – | –
M R IISAVVGIL A A V C S A (MRIISAVVGILAAVCSA) [HER654-662-IN-ES] | 2929 | 2773 | 1699 | 671 | – | – | – | – | – | – | – | 2727 | 2666 | 1708 | 667 | Percent 51Cr Released From ICP47-transfected MCF7 cells loaded with the construct ([6]; E:T 20:1): 2%; Percent 51Cr Released From ICP47-transfected MCF7 cells loaded with the construct ([6]; E:T 40:1): 2%
MRYMILGLLALAAVCSA IISAVVGIL (MRYMILGLLALAAVCSAIISAVVGIL) [ES-HER654-662] | 2667 | 2518 | 1245 | 581 | – | – | – | – | – | – | – | 2767 | 2622 | 1445 | 578 | Percent 51Cr Released From ICP47-transfected MCF7 cells loaded with the construct ([6]; E:T 20:1): 2%; Percent 51Cr Released From ICP47-transfected MCF7 cells loaded with the construct ([6]; E:T 40:1): 3%
MTNKCLLQIALLLCFSTTALS IISAVVGIL (MTNKCLLQIALLLCFSTTALSIISAVVGIL) [IS-HER654-662] | 2590 | 1990 | 1557 | 615 | – | – | – | – | – | – | – | 2678 | 1974 | 1604 | 628 | Percent 51Cr Released From ICP47-transfected MCF7 cells loaded with the construct ([6]; E:T 20:1): 3%; Percent 51Cr Released From ICP47-transfected MCF7 cells loaded with the construct ([6]; E:T 40:1): 5%
YLPGVIAAI (listed as Homo sapiens) [STEAP130-138] | – | – | – | – | 53 | −1 | 37 | 2 | 63 | induced potent peptide-specific CTL | 1 | – | – | – | – | –
YLPGVIAAV [STEAP130-138 - 9V] | – | – | – | – | 68 | −2 | 47 | 1 | 53 | induced potent peptide-specific CTL | 1 | – | – | – | – | –
YLWGVIAAI [STEAP130-138 - 3W] | – | – | – | – | 69 | −2 | 64 | 5 | 63 | induced potent peptide-specific CTL | 4 | – | – | – | – | –
